Data from US4921850A, “3-propenylcephem derivative” (Eisai Co., Ltd., priority 1986, dated 1990).
In brackets after ≈: the same amount, converted by molar mass. Read-outs that look alike come from different tables or passages of the source.

What was measured:
[1] = system: Enterobacter cloacae E-74; experiment: Comparison test of anti-bacterial activity (MIC); type: cell-based; details: E74, 18 h, comparison R1 = CH2F vs CH3
Procedure: (§1) MIC (μg/ml) were determined by an agar dilution method [Chemotherapy (Japan), 29, 76-79, 1981]. Overnight cultures of the bacterial strains in Mueller-Hinton broth were diluted to final concentration of about 10^6 CFU/ml, and 5 μl of each bacterial suspension was spotted onto Mueller-Hinton agar plates that contained twofold serial dilutions of antibiotics. MICs were measured after incubation for 18 hours at 37° C.
(§2) Comparison tests of the anti-bacterial activities were conducted between the compounds of the following formula according to the present invention and the corresponding control compounds wherein R1 represents methyl group. Measurements of MIC are the same as described in the above item 2.

[2] = system: Xantomonas maltophilia E 04004; experiment: Comparison test of anti-bacterial activity (MIC); type: cell-based; details: 18 h, comparison R1 = CH2F vs CH3
Procedure: as §1, §2

Staph. aureus E 31106 = experiment: Comparison test of anti-bacterial activity (MIC); type: cell-based; details: Staphylococcus aureus, E31106, 18 h, comparison R1 = CH2F vs CH3
Procedure: as §1, §2

Proteus vulgaris E 08042 = experiment: Comparison test of anti-bacterial activity (MIC); type: cell-based; details: E08042, 18 h, comparison R1 = CH2F vs CH3
Procedure: as §1, §2

[3] = system: Morganella morganii EP-14; experiment: Anti-bacterial activity (MIC), agar dilution; type: cell-based; details: Morganella morganii, EP14, 18 h, about 10^6 CFU/ml, 37° C., read-out: MIC
Outline: (§3)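 MIC values (μg/ml) come from agar dilution: strains grown overnight in Mueller-Hinton broth, diluted to roughly 10^6 CFU/ml, spotted on Mueller-Hinton agar containing twofold serial antibiotic dilutions, and read after 18 hours at 37° C.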

Ser. marcescens ES-75 = experiment: Anti-bacterial activity (MIC), agar dilution; type: cell-based; details: Serratia marcescens, ES75, 18 h, Ser. marcescens ES-75; agar dilution, about 10^6 CFU/ml, 18 hours, 37° C.; read-out: MIC
Outline: as §3

Escher. coli NIHJ = experiment: Anti-bacterial activity (MIC), agar dilution; type: cell-based; details: Escherichia coli, 18 h, Escher. coli NIHJ; agar dilution, about 10^6 CFU/ml, 18 hours, 37° C.; read-out: MIC
Outline: as §3

Pseud. aeruginosa EP-01 = experiment: Anti-bacterial activity (MIC), agar dilution; type: cell-based; details: Pseudomonas aeruginosa, EP01, 18 h, Pseud. aeruginosa EP-01; agar dilution, about 10^6 CFU/ml, 18 hours, 37° C.; read-out: MIC
Outline: as §3

Kleb. pneumoniae EK-6 = experiment: Anti-bacterial activity (MIC), agar dilution; type: cell-based; details: Klebsiella pneumoniae, EK6, 18 h, Kleb. pneumoniae EK-6; agar dilution, about 10^6 CFU/ml, 18 hours, 37° C.; read-out: MIC
Outline: as §3

Staph. aureus 209-P = experiment: Anti-bacterial activity (MIC), agar dilution; type: cell-based; details: Staphylococcus aureus, 209P, 18 h, Staph. aureus 209-P; agar dilution, about 10^6 CFU/ml, 18 hours, 37° C.; read-out: MIC
Outline: as §3

in vivo = details: read-out: values of acute toxicity
Description: (1) Acute toxicity in mouse:
The compounds according to this invention dissolved in a physiological saline solution were intravenously dosed to five ICR male 6 weeks-old mouse.

[4] = intravenous, physiological saline solution, five ICR male 6 weeks-old mouse

SMILES | MIC [1] | MIC [2] | MIC (Staph. aureus E 31106) | MIC (Proteus vulgaris E 08042) | MIC [3] | MIC (Ser. marcescens ES-75) | MIC (Escher. coli NIHJ) | MIC (Pseud. aeruginosa EP-01) | MIC (Kleb. pneumoniae EK-6) | MIC (Staph. aureus 209-P) | LD50 (in vivo; [4]) | LD50 (in vivo; mouse, iv)
CO/N=C(\C(=O)N[C@@H]1C(=O)N2C(C(=O)[O-])=C(/C=C/C[n+]3ccc(C(=O)O)cc3)CS[C@H]12)c1nsc(N)n1 [CH3 (Control) to Example 125, reference compound] | 3.13 µg/mL (≈ 5.74 µM) | 50 µg/mL (≈ 91.6 µM) | 12.5 µg/mL (≈ 22.9 µM) | 12.5 µg/mL (≈ 22.9 µM) | – | – | – | – | – | – | – | –
CO/N=C(\C(=O)N[C@@H]1C(=O)N2C(C(=O)[O-])=C(/C=C/C[N+]3(C)CCCC3)CS[C@H]12)c1nsc(N)n1 [CH3 (Control) to Example 126, reference compound] | 0.1 µg/mL (≈ 0.197 µM) | 100 µg/mL (≈ 197 µM) | – | 1.56 µg/mL (≈ 3.07 µM) | – | – | – | – | – | – | – | –
CO/N=C(\C(=O)N[C@@H]1C(=O)N2C(C(=O)[O-])=C(/C=C/C[n+]3ccc(C(N)=O)cc3)CS[C@H]12)c1nsc(N)n1 [CH3 (Control) to Example 127, reference compound] | 0.4 µg/mL (≈ 0.735 µM) | 50 µg/mL (≈ 91.8 µM) | 6.25 µg/mL (≈ 11.5 µM) | 3.13 µg/mL (≈ 5.75 µM) | – | – | – | – | – | – | – | –
CO/N=C(\C(=O)N[C@@H]1C(=O)N2C(C(=O)[O-])=C(/C=C/C[N+](C)(C)C)CS[C@H]12)c1nsc(N)n1 [CH3 (Control) to Example 128, reference compound] | 0.2 µg/mL (≈ 0.415 µM) | > 100 µg/mL | 6.25 µg/mL (≈ 13 µM) | 6.25 µg/mL (≈ 13 µM) | – | – | – | – | – | – | – | –
Nc1nc(/C(=N/OCF)C(=O)N[C@@H]2C(=O)N3C(C(=O)[O-])=C(/C=C/C[n+]4ccc(C(=O)O)cc4)CS[C@H]23)ns1 [Example 125, 7β-[2-(5-Amino-1,2,4-thiadiazol-3-yl)-(Z)-2-fluoromethoxyiminoacetamido]-3-[(E)-3-(4-carboxypyridinio)-1-propen-1-yl]-3-cephem-4-carboxylate] | 0.4 µg/mL (≈ 0.71 µM) | 25 µg/mL (≈ 44.4 µM) | 6.25 µg/mL (≈ 11.1 µM) | 0.2 µg/mL (≈ 0.355 µM) | ≤ 0.025 µg/mL | ≤ 0.025 µg/mL | ≤ 0.025 µg/mL | 1.56 µg/mL (≈ 2.77 µM) | ≤ 0.025 µg/mL | 0.4 µg/mL (≈ 0.71 µM) | – | –
C[N+]1(C/C=C/C2=C(C(=O)[O-])N3C(=O)[C@@H](NC(=O)/C(=N\OCF)c4nsc(N)n4)[C@H]3SC2)CCCC1 [Example 126, 7β-[2-(5-Amino-1,2,4-thiadiazol-3-yl)-(Z)-2-fluoromethoxyiminoacetamido]-3-[(E)-3-(1-methylpyrrolidinio)-1-propen-1-yl]-3-cephem-4-carboxylate] | 0.05 µg/mL (≈ 0.0951 µM) | 12.5 µg/mL (≈ 23.8 µM) | 1.56 µg/mL (≈ 2.97 µM) | 0.05 µg/mL (≈ 0.0951 µM) | ≤ 0.025 µg/mL | 0.05 µg/mL (≈ 0.0951 µM) | ≤ 0.025 µg/mL | 0.8 µg/mL (≈ 1.52 µM) | ≤ 0.025 µg/mL | 0.1 µg/mL (≈ 0.19 µM) | – | –
NC(=O)c1cc[n+](C/C=C/C2=C(C(=O)[O-])N3C(=O)[C@@H](NC(=O)/C(=N\OCF)c4nsc(N)n4)[C@H]3SC2)cc1 [Example 127, 7β-[2-(5-Amino-1,2,4-thiadiazol-3-yl)-(Z)-2-fluoromethoxyiminoacetamido]-3-[(E)-3-(4-carbamoylpyridinio)-1-propen-1-yl]-3-cephem-4-carboxylate] | ≤ 0.025 µg/mL | 6.25 µg/mL (≈ 11.1 µM) | 3.13 µg/mL (≈ 5.56 µM) | ≤ 0.025 µg/mL | ≤ 0.025 µg/mL | 0.05 µg/mL (≈ 0.0889 µM) | ≤ 0.025 µg/mL | 0.8 µg/mL (≈ 1.42 µM) | ≤ 0.025 µg/mL | 0.1 µg/mL (≈ 0.178 µM) | – | –
C[N+](C)(C)C/C=C/C1=C(C(=O)[O-])N2C(=O)[C@@H](NC(=O)/C(=N\OCF)c3nsc(N)n3)[C@H]2SC1 [Example 128, 7β-[2-(5-Amino-1,2,4-thiadiazol-3-yl)-(Z)-2-fluoromethoxyiminoacetamido]-3-[(E)-3-(trimethylammonio)-1-propen-1-yl]-3-cephem-4-carboxylate] | 0.1 µg/mL (≈ 0.2 µM) | 25 µg/mL (≈ 50 µM) | 3.13 µg/mL (≈ 6.27 µM) | 0.1 µg/mL (≈ 0.2 µM) | 0.05 µg/mL (≈ 0.1 µM) | 0.1 µg/mL (≈ 0.2 µM) | 0.05 µg/mL (≈ 0.1 µM) | 0.8 µg/mL (≈ 1.6 µM) | 0.05 µg/mL (≈ 0.1 µM) | 0.2 µg/mL (≈ 0.4 µM) | – | –
C[N+](C)(C/C=C/C1=C(C(=O)[O-])N2C(=O)[C@@H](NC(=O)/C(=N\OCC#N)c3nsc(N)n3)[C@H]2SC1)[C@@H](CO)C(N)=O [Example 145, 7β-[2-(5-Amino-1,2,4-thiadiazol-3-yl)-(Z)-2-cyanomethoxyiminoacetamido]-3-[(E)-3-[(1S-carbamoyl-2-hydroxyethyl)dimethylammonio]-1-propen-1-yl]-3-cephem-4-carboxylate] | – | – | – | – | 0.1 µg/mL (≈ 0.173 µM) | 0.1 µg/mL (≈ 0.173 µM) | 0.2 µg/mL (≈ 0.345 µM) | 1.56 µg/mL (≈ 2.69 µM) | 0.1 µg/mL (≈ 0.173 µM) | 0.4 µg/mL (≈ 0.69 µM) | > 2000 mg/kg | –
C[N@@+]1(C/C=C/C2=C(C(=O)[O-])N3C(=O)[C@@H](NC(=O)/C(=N\OCC#N)c4nsc(N)n4)[C@H]3SC2)C[C@H](O)C[C@@H]1CO [Example 146, 7β-[2-(5-Amino-1,2,4-thiadiazol-3-yl)-(Z)-2-cyanomethoxyiminoacetamido]-3-[(E)-3-(1-methyl-2R-hydroxymethyl-4R-hydroxy-1-pyrrolidinio)-1-propen-1-yl]-3-cephem-4-carboxylate] | – | – | – | – | 0.05 µg/mL (≈ 0.0864 µM) | 0.05 µg/mL (≈ 0.0864 µM) | 0.1 µg/mL (≈ 0.173 µM) | 1.56 µg/mL (≈ 2.7 µM) | 0.05 µg/mL (≈ 0.0864 µM) | 0.4 µg/mL (≈ 0.691 µM) | – | > 2000 mg/kg
CC(=O)C[N+](C)(C)C/C=C/C1=C(C(=O)[O-])N2C(=O)[C@@H](NC(=O)/C(=N\OCC#N)c3nsc(N)n3)[C@H]2SC1 [Example 154] | – | – | – | – | 0.1 µg/mL (≈ 0.182 µM) | 0.1 µg/mL (≈ 0.182 µM) | 0.1 µg/mL (≈ 0.182 µM) | 0.8 µg/mL (≈ 1.46 µM) | 0.1 µg/mL (≈ 0.182 µM) | 0.4 µg/mL (≈ 0.729 µM) | > 2000 mg/kg | –
C[N+](C)(C/C=C/C1=C(C(=O)[O-])N2C(=O)[C@@H](NC(=O)/C(=N\OCC#N)c3nsc(N)n3)[C@H]2SC1)CC(N)=O [Example 155] | – | – | – | – | 0.1 µg/mL (≈ 0.182 µM) | 0.2 µg/mL (≈ 0.364 µM) | 0.1 µg/mL (≈ 0.182 µM) | 1.56 µg/mL (≈ 2.84 µM) | 0.05 µg/mL (≈ 0.091 µM) | 0.4 µg/mL (≈ 0.728 µM) | > 2000 mg/kg | –
